Laboratory results from the supplement of paper PMC10307832.

Experiments:
Assay in all cases: relative viability (nuclei count vs DMSO), 5 days (fraction); higher = more cells survive
BEN = test system: BEN
Summary of the method: (§1)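 A single step with final 0.05% Triton X-100, 1% formaldehyde and 1 ug/ml Hoechst fixed the cells and stained nuclei 5 days after treatment. Lung cancer cell lines in 1536-well plates had been treated by pin tool the day after seeding with one drug alone or a fixed anchor-drug dose plus five library-drug doses (not always all listed) in √10 steps, and nuclei were counted on 4× images. Relative viability is the ratio of nuclei in treated wells to nuclei in vehicle wells, taken as the median of duplicate plates.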

ChaGo-K-1 = test system: ChaGo-K-1
Summary of the method: as §1

HCC-78 = test system: HCC-78
Summary of the method: as §1

LC-2-ad = test system: LC-2-ad
Summary of the method: as §1

LCLC-97TM1 = test system: LCLC-97TM1
Summary of the method: as §1

LK-2 = test system: LK-2
Summary of the method: as §1

LU99A = test system: LU99A
Summary of the method: as §1

LXF-289 = test system: LXF-289
Summary of the method: as §1

NCI-H1355 = test system: NCI-H1355
Summary of the method: as §1

NCI-H1651 = test system: NCI-H1651
Summary of the method: as §1

NCI-H1666 = test system: NCI-H1666
Summary of the method: as §1

With `O=c1cc(-c2cccc3c2Sc2ccccc2S3)oc(N2CCOCC2)c1` + C[C@@H](Oc1cc(-c2cnn(C3CCNCC3)c2)cnc1N)c1c(Cl)ccc(F)c1Cl [Crizotinib] (partner 1 µM) the relative viability (BEN; first compound 0.08 µM) was 0.925, the relative viability (BEN; first compound 0.253 µM) was 1.02 and the relative viability (BEN; first compound 0.8 µM) was 1.1. The relative viability (BEN; first compound 2.53 µM) was 0.85, the relative viability (BEN; first compound 8 µM) was 1.14 and the relative viability (ChaGo-K-1; first compound 0.08 µM) was 1.09. The relative viability (ChaGo-K-1; first compound 0.253 µM) was 1.35, the relative viability (ChaGo-K-1; first compound 0.8 µM) was 1.25 and the relative viability (ChaGo-K-1; first compound 8 µM) was 1.22. It also gave a relative viability (HCC-78; first compound 0.08 µM) of 0.286, a relative viability (HCC-78; first compound 0.253 µM) of 0.34 and a relative viability (HCC-78; first compound 0.8 µM) of 0.291. It also gave a relative viability (HCC-78; first compound 2.53 µM) of 0.342, a relative viability (HCC-78; first compound 8 µM) of 0.34 and a relative viability (LC-2-ad; first compound 0.08 µM) of 0.392. It also gave a relative viability (LC-2-ad; first compound 0.253 µM) of 0.499, a relative viability (LC-2-ad; first compound 0.8 µM) of 0.525 and a relative viability (LC-2-ad; first compound 2.53 µM) of 0.436. For the same compound, the relative viability (LC-2-ad; first compound 8 µM) was 0.509, the relative viability (LCLC-97TM1; first compound 0.08 µM) was 0.373 and the relative viability (LCLC-97TM1; first compound 0.253 µM) was 0.408. The relative viability (LCLC-97TM1; first compound 0.8 µM) was 0.459, the relative viability (LCLC-97TM1; first compound 2.53 µM) was 0.334 and the relative viability (LCLC-97TM1; first compound 8 µM) was 0.456. It also gave a relative viability (LK-2; first compound 0.08 µM) of 0.196, a relative viability (LK-2; first compound 0.253 µM) of 0.224 and a relative viability (LK-2; first compound 0.8 µM) of 0.194. The relative viability (LK-2; first compound 2.53 µM) was 0.231, the relative viability (LK-2; first compound 8 µM) was 0.208 and the relative viability (LU99A; first compound 0.08 µM) was 0.552. The relative viability (LU99A; first compound 0.253 µM) was 0.574, the relative viability (LU99A; first compound 0.8 µM) was 0.932 and the relative viability (LU99A; first compound 2.53 µM) was 0.596. For the same compound, the relative viability (LU99A; first compound 8 µM) was 0.701, the relative viability (LXF-289; first compound 0.08 µM) was 0.839 and the relative viability (LXF-289; first compound 0.253 µM) was 0.877. The relative viability (LXF-289; first compound 0.8 µM) was 0.849, the relative viability (LXF-289; first compound 2.53 µM) was 0.8 and the relative viability (LXF-289; first compound 8 µM) was 0.845. It also gave a relative viability (NCI-H1355; first compound 0.08 µM) of 1.08, a relative viability (NCI-H1355; first compound 0.253 µM) of 1.16 and a relative viability (NCI-H1355; first compound 0.8 µM) of 1.04. For the same compound, the relative viability (NCI-H1355; first compound 2.53 µM) was 1.06, the relative viability (NCI-H1355; first compound 8 µM) was 0.98 and the relative viability (NCI-H1651; first compound 0.08 µM) was 0.916. The relative viability (NCI-H1651; first compound 0.253 µM) was 0.889, the relative viability (NCI-H1651; first compound 0.8 µM) was 0.916 and the relative viability (NCI-H1651; first compound 2.53 µM) was 0.882. The relative viability (NCI-H1651; first compound 8 µM) was 0.903, the relative viability (NCI-H1666; first compound 0.08 µM) was 0.911 and the relative viability (NCI-H1666; first compound 0.253 µM) was 1.04.
